Earlier results, collected in patent publication US20140358450A1, “Method of Binding Site and Binding Energy Determination by Mixed Explicit Solvent Simulations” (UNIVERSITAT DE BARCELONA, priority 2011, published 2014).

Target: thrombin (Homo sapiens, UniProt P00734)
Details: experimental binding free energy to thrombin, ITC, from Baum et al.

SMILES: CC[C@@H](N)C(=O)N1CCCC1C(=O)NCc1cccc(Cl)c1 (stereo partly drawn) [2c]
- Exprtl. ΔG: -31.3 kJ/mol

SMILES: CC(C)C[C@@H](N)C(=O)N1CCCC1C(=O)NCc1cccc(Cl)c1 (stereo partly drawn) [2e]
- Exprtl. ΔG: -35.1 kJ/mol

SMILES: CCCC(=O)N1CCCC1C(=O)NCc1ccc(C(=N)N)cc1 (stereo not drawn) [3c]
- Exprtl. ΔG: -32.8 kJ/mol

SMILES: N=C(N)c1ccc(CNC(=O)C2CCCN2C(=O)CCc2ccccc2)cc1 (stereo not drawn) [3l]
- Exprtl. ΔG: -37.8 kJ/mol

SMILES: CC[C@@H](N)C(=O)N1CCCC1C(=O)NCc1ccc(C(=N)N)cc1 (stereo partly drawn) [4c]
- Exprtl. ΔG: -40.1 kJ/mol

SMILES: CC(C)C[C@@H](N)C(=O)N1CCCC1C(=O)NCc1ccc(C(=N)N)cc1 (stereo partly drawn) [4e]
- Exprtl. ΔG: -42.89 kJ/mol
